One data set has as its system 139. Briefly: MIC, agar incorporation method. Format: cell-based. The procedure, abridged: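 Doubling dilutions of compound in DMSO were incorporated into Mueller-Hinton agar; 10^4 CFU/spot inoculated from 0.5 McFarland suspensions and incubated 18 h (24 h for MRSN studies). MIC = lowest concentration without visible growth; valid only when ATCC reference strains gave in-range MICs.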

For a further data set, the system named is Moraxella M6. Put plainly: MIC, agar incorporation method. The class given is cell-based.
The next data set relates to H. influenzae 35056. Briefly: MIC against Haemophilus strains. The class given is cell-based. To be noted: Haemophilus influenzae; s. No. 1, H. influenzae 35056; read-out: MIC.
A further data set deals with H. influenzae 23. Put plainly: MIC against Haemophilus strains. The class given is cell-based. Particulars: Haemophilus influenzae; s. No. 5, H. influenzae 23; read-out: MIC.
The test system of a further data set is H. influenzae 49766. Put plainly: MIC against Haemophilus strains. The class given is cell-based. To be noted: Haemophilus influenzae; s. No. 6, H. influenzae 49766; read-out: MIC.
For data set [1], the system named is M. tuberculosis ATCC. Briefly: MIC against M. tuberculosis strains, agar dilution. The class given is cell-based, Mycobacterium tuberculosis. To be noted: S. No. 01.Mt-, Middle Brook 7H10 + OADC, 37° C., 14-21 days.
The test system of data set [2] is M. tuberculosis SGPGI. Briefly: MIC against M. tuberculosis strains, agar dilution. To be noted: S. No. 05 Mt-, Middle Brook 7H10 + OADC, 37° C., 14-21 days. Format: cell-based, Mycobacterium tuberculosis.
The test system of data set [3] is M. tuberculosis SGPGI. Put plainly: MIC against M. tuberculosis strains, agar dilution. The class given is cell-based, Mycobacterium tuberculosis. To be noted: S. No. 07 Mt-, Middle Brook 7H10 + OADC, 37° C., 14-21 days.
A further data set concerns M. tuberculosis M-66. Put plainly: MIC against M. tuberculosis strains, agar dilution. Format: cell-based, Mycobacterium tuberculosis. Particulars: Middle Brook 7H10 + OADC, 37° C., 14-21 days.
A further data set deals with M. tuberculosis V-3093. Put plainly: MIC against M. tuberculosis strains, agar dilution. The class given is cell-based, Mycobacterium tuberculosis. Particulars: Middle Brook 7H10 + OADC, 37° C., 14-21 days.
The subject of another data set is M. tuberculosis PC. Briefly: MIC against M. tuberculosis strains, agar dilution. To be noted: S. No. 22 Mt-, Middle Brook 7H10 + OADC, 37° C., 14-21 days. Format: cell-based, Mycobacterium tuberculosis.
The subject of the next data set is M. tuberculosis H37Ra. Put plainly: MIC against M. tuberculosis strains, agar dilution. Format: cell-based, Mycobacterium tuberculosis. To be noted: S. No. 24 Mt-, Middle Brook 7H10 + OADC, 37° C., 14-21 days.
The subject of another data set is M. avium AIIMS. Put plainly: MIC against MAC strains, agar dilution. Particulars: S. No. 04 Ma-4, M. avium AIIMS, Middle Brook 7H10 + OADC, 37° C., 14-21 days. Format: cell-based, Mycobacterium avium.
Data set [4] relates to M. intracellulare ATCC 13950. Put plainly: MIC against MAC strains, agar dilution. The class given is cell-based. Particulars: S. No. 06 Mi-1, M. intracellulare ATCC 13950, Middle Brook 7H10 + OADC, 37° C., 14-21 days.
The subject of data set [5] is M. intracellulare ATCC 35761. Briefly: MIC against MAC strains, agar dilution. Format: cell-based. To be noted: S. No. 07 Mi-2, M. intracellulare ATCC 35761, Middle Brook 7H10 + OADC, 37° C., 14-21 days.
Another data set has as its system M. intracellulare B-78/3. Put plainly: MIC against MAC strains, agar dilution. Format: cell-based. To be noted: S. No. 09 Mi-4, M. intracellulare B-78/3, Middle Brook 7H10 + OADC, 37° C., 14-21 days.
The subject of data set [6] is M. avium intracellulare 4. Briefly: MIC against MAC strains, agar dilution. The class given is cell-based. To be noted: S. No. 11 Mai-2, M. avium intracellulare 4, Middle Brook 7H10 + OADC, 37° C., 14-21 days.
Data set [7] has as its system M. avium intracellulare 926/98. Put plainly: MIC against MAC strains, agar dilution. To be noted: S. No. 14 Mai-6, M. avium intracellulare 926/98, Middle Brook 7H10 + OADC, 37° C., 14-21 days. Format: cell-based.
Data set [8] concerns M. avium intracellulare 18/98. Briefly: MIC against MAC strains, agar dilution. Format: cell-based. To be noted: S. No. 16 Mai-9, M. avium intracellulare 18/98, Middle Brook 7H10 + OADC, 37° C., 14-21 days.
For data set [9], the system named is M. avium intracellulare 19/97. Put plainly: MIC against MAC strains, agar dilution. Format: cell-based. To be noted: S. No. 17 Mai-10, M. avium intracellulare 19/97, Middle Brook 7H10 + OADC, 37° C., 14-21 days.
Data set [10] concerns M. tuberculosis ATCC. Put plainly: MIC against M. tuberculosis strains, agar dilution. Format: cell-based, Mycobacterium tuberculosis. To be noted: S. No. 03 Mt-, Middle Brook 7H10 + OADC, 37° C., 14-21 days.
The test system of another data set is M. tuberculosis H37Rv. Put plainly: MIC against M. tuberculosis strains, agar dilution. Format: cell-based, Mycobacterium tuberculosis. To be noted: S. No. 04 Mt-, Middle Brook 7H10 + OADC, 37° C., 14-21 days.
Where [11] appears, read: Mycobacterium tuberculosis, read-out: MIC.
[12] abbreviates: Mycobacterium tuberculosis, M66, S. No. 08 Mt-, read-out: MIC.
The mark [13] stands for this setting: Mycobacterium tuberculosis, V3093, S. No. 14 Mt-, read-out: MIC.
Where [14] appears, read: Mycobacterium avium, read-out: MIC.

Converted amounts (≈) assume the structure as drawn. Like-named read-outs stand apart in the source and are kept apart here.

Molecule `CC(=O)NC[C@H]1CN(c2ccc(N3CCN(c4ccc([N+](=O)[O-])s4)CC3)c(F)c2)C(=O)O1` [Compound No. 1, (S)—N-[[3-[3-Fluoro-4-[4-(5-nitro-2-thienyl)-1-piperazinyl]phenyl]-2-oxo-5-oxazolidinyl]methyl]acetamide] showed a melting point of 171 to 174 °C. In the data set on 139, this molecule had an MIC of 0.25 µg/mL (≈ 0.539 µM). In addition, the MIC in the data set on Moraxella M6 (S. No. 60, Moraxella M6, read-out: MIC) worked out at 0.25 µg/mL (≈ 0.539 µM). In addition, in the data set with H. influenzae 35056, the MIC was 8 µg/mL (≈ 17.3 µM). The MIC in the data set with H. influenzae 23 is > 16 µg/mL. Further, the MIC in the data set with H. influenzae 49766 was determined as 8 µg/mL (≈ 17.3 µM). Moreover, the MIC with M. tuberculosis ATCC [1] (setting [11]) is ≤ 0.125 µg/mL. Further, the MIC in the data set on M. tuberculosis SGPGI [2] (setting [11]) was determined as 0.25 µg/mL. Further, the MIC in the data set on M. tuberculosis SGPGI [3] (setting [11]) was 0.5 µg/mL. In addition, the MIC with M. tuberculosis M-66 (setting [12]) was > 32 µg/mL. Besides, in the data set with M. tuberculosis V-3093 (setting [13]), the MIC was ≤ 0.125 µg/mL. Also, in the data set with M. tuberculosis PC (setting [11]), the MIC was 0.5 µg/mL. Also, in the data set with M. tuberculosis H37Ra (setting [11]), the MIC is ≤ 0.125 µg/mL. Besides, the MIC with M. avium AIIMS (setting [14]) came to 0.25 µg/mL. The MIC in data set [4] (Mycobacterium intracellulare, ATCC13950, read-out: MIC) worked out at 16 µg/mL. In [5] (Mycobacterium intracellulare, ATCC35761, read-out: MIC), the MIC was < 0.12 µg/mL. Further, the MIC with M. intracellulare B-78/3 (Mycobacterium intracellulare, B78/3, read-out: MIC) stood at 0.25 µg/mL. Moreover, the MIC in [6] (setting [14]) is < 0.125 µg/mL. Further, in [7] (setting [14]), the MIC was < 0.12 µg/mL. Also, the MIC in [8] (setting [14]) was 0.25 µg/mL. Besides, the MIC in [9] (setting [14]) worked out at 0.25 µg/mL.
Molecule `CC(=O)NC[C@H]1CN(c2ccc(N3CCN(c4ccc(C=O)o4)CC3)c(F)c2)C(=O)O1` [Compound No. 3, (S)—N-[[3-[3-Fluoro-4-[4-(5-formyl-2-furyl)-1-piperazinyl]phenyl]-2-oxo-5-oxazolidinyl]methyl]acetamide] returned a melting point of 176 °C. Also, the MIC against 139 was 0.5 µg/mL (≈ 1.16 µM). Further, in the data set on H. influenzae 35056, the MIC amounted to 4 µg/mL (≈ 9.29 µM). Also, the MIC in the data set with H. influenzae 23 came out at 8 µg/mL (≈ 18.6 µM). Further, the MIC with H. influenzae 49766 was determined as 8 µg/mL (≈ 18.6 µM).
`NNC(=O)c1ccncc1` [INH]: the MIC is 0.125 µg/mL with M. tuberculosis ATCC [1]; >32 µg/mL in the data set with M. tuberculosis ATCC [10]; 0.125 µg/mL in the data set with M. tuberculosis H37Rv; 1.0 µg/mL with M. tuberculosis SGPGI [2]; >32 µg/mL in the data set with M. tuberculosis SGPGI [3]; >32 µg/mL with M. tuberculosis M-66 (S. No. 08 Mt-). For the same molecule, the MIC in the data set on M. tuberculosis V-3093 (S. No. 14 Mt-) was 0.06 µg/mL; with M. tuberculosis PC, >32 µg/mL; with M. tuberculosis H37Ra, 0.25 µg/mL; with M. avium AIIMS, >32 µg/mL; in data set [4], >32 µg/mL; in data set [5], 4.0 µg/mL. Further, the MIC with M. intracellulare B-78/3 came to 16 µg/mL; in [6] it was 2.0 µg/mL; in data set [7], 4.0 µg/mL; in data set [8], 8.0 µg/mL; in data set [9], 32 µg/mL.
As to `CC(=O)NC[C@H]1CN(c2ccc(N3CCOCC3)c(F)c2)C(=O)O1` [Linezolid, reference compound], the MIC with 139 is 1 µg/mL (≈ 2.96 µM); in the data set on Moraxella M6 (Moraxella, M6), 4 µg/mL (≈ 11.9 µM); in the data set on H. influenzae 35056 it was 8 µg/mL (≈ 23.7 µM); with H. influenzae 23, 16 µg/mL (≈ 47.4 µM); with H. influenzae 49766 it was 16 µg/mL (≈ 47.4 µM); in the data set with M. tuberculosis ATCC [1] (setting [11]), 1 µg/mL. Further, the MIC is 1 µg/mL in the data set on M. tuberculosis ATCC [10] (setting [11]); 1 µg/mL in the data set with M. tuberculosis H37Rv (setting [11]); 4 µg/mL with M. tuberculosis SGPGI [2] (setting [11]); > 32 µg/mL in the data set on M. tuberculosis SGPGI [3] (setting [11]); > 32 µg/mL with M. tuberculosis M-66 (setting [12]); 1 µg/mL with M. tuberculosis V-3093 (setting [13]). Besides, the MIC was 32 µg/mL in the data set with M. tuberculosis PC (setting [11]), 0.5 µg/mL with M. tuberculosis H37Ra (setting [11]) and 8 µg/mL in data set [6] (setting [14]).
Regarding `C[C@@H]1CN(c2c(F)c(N)c3c(=O)c(C(=O)O)cn(C4CC4)c3c2F)C[C@H](C)N1` [SPAR], the MIC entry in the data set on M. tuberculosis ATCC [1] was “≦0.125 μg/ml”; in the data set on M. tuberculosis ATCC [10], “≦0.125 μg/ml”; with M. tuberculosis H37Rv it was “≦0.125 μg/ml”; with M. tuberculosis SGPGI [2], 0.25 µg/mL; in the data set with M. tuberculosis SGPGI [3], 4.0 µg/mL; in the data set with M. tuberculosis M-66 (S. No. 08 Mt-) it was 32 µg/mL. In addition, the MIC entry in the data set on M. tuberculosis V-3093 (S. No. 14 Mt-) was “≦0.125 μg/ml”; in the data set with M. tuberculosis PC, 4.0 µg/mL; with M. tuberculosis H37Ra it was “≦0.12 μg/ml”; in the data set with M. avium AIIMS it was 8.0 µg/mL; in data set [4] it was 16 µg/mL; in data set [5] it was 2.0 µg/mL. Moreover, the MIC with M. intracellulare B-78/3 stood at 2.0 µg/mL; in data set [6], 1.0 µg/mL; in data set [7] it was 2.0 µg/mL; in [8] it was 2.0 µg/mL; in data set [9] it was 1.0 µg/mL.
As for `CN[C@H](CC(C)C)C(=O)N[C@H]1C(=O)N[C@@H](CC(N)=O)C(=O)N[C@H]2C(=O)N[C@H]3C(=O)N[C@H](C(=O)N[C@H](C(=O)O)c4cc(O)cc(O)c4-c4cc3ccc4O)[C@H](O)c3ccc(c(Cl)c3)Oc3cc2cc(c3O[C@@H]2O[C@H](CO)[C@@H](O)[C@H](O)[C@H]2O[C@H]2C[C@](C)(N)[C@H](O)[C@H](C)O2)Oc2ccc(cc2Cl)[C@H]1O` [Vancomycin, reference compound], the MIC against 139 was > 16 µg/mL; against Moraxella M6 (Moraxella, M6), > 8 µg/mL.

The record behind these values is patent publication US20060293307A1, “Oxazolidinone derivatives as antimicrobials” (priority 2002, published 2006).
